# In article PMC11478287, “Design and Synthesis of Pyridyl and 2-Hydroxyphenyl Chalcones with Antitubercular Activity” (Molecules, 2024):
# Entries after “also recorded” stand apart in the source; their conditions may differ. Where two headings read alike, the source gives them in different places.
# What was measured:
# [1] = test system: Mycobacterium tuberculosis H37Rv; test: microbe, parasite or virus in culture; type: cell-based; details: for IC90: read-out: Anti-tubercular activity M. tuberculosis (H37Rv) IC90; for IC50: SD in brackets, read-out: Anti-tubercular activity M. tuberculosis (H37Rv) IC50 (SD)
# [2] = MCF-10A MTT cytotoxicity screening; type: cell-based; details: human, MCF-10A normal breast (mammary epithelial) cells, quadruplicate, read-out: Cytotoxicity MCF10A normal breast cells IC50
# Description: (§1) The cytotoxicity of compounds towards eukaryotic cells was determined using human liver cells (HepG2), non-tumorigenic human mammary epithelial cells (MCF-10A), and breast cancer cells (MDA-MB-468).
# (§2) Cells were purchased from the American Type Culture Collection (Manassas, VA, USA). MDA-468 cells were grown in RPMI-1640 medium with 10% (v/v) heat-inactivated foetal calf serum and L-glutamine (2 mM) without phenol red. MCF-10A cells were grown in Dulbecco’s modified Eagle’s medium/ Ham’s F-12 medium (1:1) with 5% (v/v) heat-inactivated foetal calf serum, epidermal growth factor (20 ng/mL), insulin (10 µg/mL), and hydrocortisone (500 ng/mL). Cells were maintained at 37 °C, 5% CO2 / 95% air with 100% humidity and passaged every 2–3 days using trypsin EDTA solution (0.25% w/v). Adhered cells at sub confluence were harvested for experimental use. The medium was aspirated and discarded, and trypsin-EDTA solution (1% w/v, 1 mL) was added to the cells. After 30 s this was aspirated and immediately replaced by a further 1 mL of trypsin-EDTA solution. The cells were incubated at 37 °C for approximately 5 min or until the cells were visibly non-adherent. The resultant cell suspension was placed in a 25 mL sterile universal container with 10 mL of fresh medium followed by centrifugation (3 min, 3000 rpm, and 4 °C). Old medium was aspirated and replaced with 10 mL of fresh medium. To determine the density of cells in suspension, an aliquot (100 µL) was added to a trypan-blue solution (0.4% w/v, 100 µL), and the number of viable cells were determined using a Neubauer haemocytometer. The cell suspension was diluted with relevant medium to give a cell count of 2 × 10^3 cells per mL. Aliquots (100 µL) were dispensed into sterile 96-well microtitre flat-bottomed plates. For the MDA-468 and MCF-10A cell lines the plates were incubated at 37 °C, 5% CO2/95% air with 100% humidity for 24 h prior to the addition of test compounds. Test compounds were added within 30 min into the wells from a 100 mM stock solution in DMSO and serially diluted to give final concentrations of […], 0.01, 0.003, 0.001, and 0.0003 µM. […] The cells were allowed to grow for 96 h at 5%, CO2, 37 °C to give 80–90% confluence in the control wells, after which 50 µL of MTT (3-[4,5 dimethylthiazol-2-yl]-2,5-diphenyl tetrazolium bromide, 2 mg mL^−1) in sterile phosphate buffer was added to each well and the plates were further incubated for 2 h. All medium was aspirated, and the formazan precipitate generated by viable cells was solubilised by 150 µL of DMSO. All the plates were vortexed, and the absorbance at 540 nm was determined using a Molecular Devices SpectraMax M5 plate reader. Results were expressed as a percentage of the control value versus the negative logarithm of the molar drug concentration range using Graph Pad Prism. Relative toxicities of each compound within each cell line were expressed as 50% of growth inhibition (IC50). All determinations were carried out in quadruplicate.
# [3] = test system: MDA468 breast cancer cells; parameters: method as in PMID 29332599; details: previously reported value ref 12; read-out: Cytotoxicity MDA468 breast cancer cells IC50; cited from earlier work
# [4] = MDA-468 MTT cytotoxicity screening; type: cell-based; details: human, MDA-MB-468 (MDA468) breast cancer cells, quadruplicate
# Description: as §1, §2
# [5] = HepG2 cytotoxicity screening (CellTiter-Glo); type: cell-based; details: human, HepG2 cells; 50% decrease in viable cells after 72 h
# Description: as §1
# HepG2 cells were incubated with compounds for 72 h in medium containing either glucose or galactose, and cell viability was measured. The IC50 was determined as the concentration of compound causing a 50% decrease in viable cells after 72 h. Compounds were prepared as 10-point three-fold serial dilutions in DMSO. The highest concentration of compound tested was 100 µM where compounds were soluble in DMSO at 10 mM. […] HepG2 cells were cultured in complete DMEM (recipe: DMEM medium, 1X penicillin-streptomycin solution, 2 mM Corning Glutogro supplement, 1 mM sodium pyruvate, 10% v/v Fetal Bovine Serum), inoculated into 384-well assay plates and incubated for 24 h at 37 °C, 5% CO2. Compounds were added and cells were cultured for a further 72 h. The final DMSO concentration was 1%. Cell viability was determined using the CellTiter-Glo® Luminescent Cell Viability Assay (Promega, Madison, WI, USA) and measuring relative luminescent units (RLU). The dose-response curve was fitted using the Levenberg–Marquardt algorithm. The IC50 was defined as the compound concentration that produced a 50% decrease in viable cells. Each run included staurosporine as a control.
# [6] = Mycobacterium tuberculosis, H37RV, 120 h, 5-day incubation, […]
Structure (SMILES),IC50 at 96 h [2] [µM],"IC90 [1, 6] [µM]",IC50 at 96 h [4] [µM],"IC50 [1, 6] [µM]",IC50 at 72 h [5] [µM],further results
COc1cc(C(=O)/C=C/c2ccc3c(c2)OCO3)cc(OC)c1OC [Compound 2],2.3,,,,,"Anti-tubercular activity (in words) [1]: did not exhibit anti-tubercular activity; also recorded: no antitubercular activity; IC90 ([1]; Mycobacterium tuberculosis, H37RV, 120 h): > 100 µM; IC50 [3]: 0.006 µM"
"O=C(/C=C/c1cccc(Br)c1)c1cccnc1 [Compound 28, (E)-3-(3-bromophenyl)-1-(pyridin-3-yl)prop-2-en-1-one]",5.2,65,0.7,,,
"O=C(/C=C/c1cccnc1)c1ccc(Cl)c(Cl)c1 [Compound 14, (E)-1-(3,4-dichlorophenyl)-3-(pyridin-3-yl)prop-2-en-1-one]",,28,,12,2.5,
"COc1cccc(C(=O)/C=C/c2ccc(Br)cc2)c1 [Compound 25, (E)-3-(4-bromophenyl)-1-(3-methoxyphenyl)prop-2-en-1-one]",,28,,22,14,
"O=C(/C=C/c1ccc(Br)cc1)c1ccccc1O [Compound 24, (E)-3-(4-bromophenyl)-1-(2-hydroxyphenyl)prop-2-en-1-one]",,97,,> 100,14,
"COc1cccc(C(=O)/C=C/c2ccc(Cl)cc2)c1 [Compound 26, (E)-3-(4-chlorophenyl)-1-(3-methoxyphenyl)prop-2-en-1-one]",,≥ 28,,20,13,"IC90 ([1]; 5-day incubation, […]): 28 µM"
"Oc1ccccc1C1=NNC(c2ccc(Br)cc2)C1 (stereo not drawn) [Compound 31, 2-(5-(4-bromophenyl)-4,5-dihydro-1H-pyrazol-3-yl)phenol]",,34,,23,24.5,
"O=C(/C=C/c1cccnc1)c1ccccc1O [Compound 18, (E)-1-(2-hydroxyphenyl)-3-(pyridin-3-yl)prop-2-en-1-one]",16,> 100,8,> 100,22,Anti-tubercular activity (in words) ([1]; M. tuberculosis H37Rv): abolished
"COc1ccc(/C=C\c2cc(OC)c(OC)c(OC)c2)cc1O [Combretastatin A-4, reference compound]",0.0016,,0.003,,,
"Oc1ccccc1C1=NNC(c2ccc(Cl)cc2)C1 (stereo not drawn) [Compound 30, 2-(5-(4-chlorophenyl)-4,5-dihydro-1H-pyrazol-3-yl)phenol]",,,,23,19.5,
"O=C(/C=C/c1cccnc1)c1ccc(-c2ccccc2)cc1 [Compound 21, (E)-1-([1,1′-biphenyl]-4-yl)-3-(pyridin-3-yl)prop-2-en-1-one]",7,8.9,3.5,3.9,4.5,
"O=C(/C=C/c1cn(-c2ccccc2)nc1-c1ccccc1)c1ccccc1O [Compound 27, (E)-3-(1,3-diphenyl-1H-pyrazol-4-yl)-1-(2-hydroxyphenyl)prop-2-en-1-one]",,97 to 100,,> 100,74,"IC90 ([1]; 5-day incubation, […]): > 100 µM"
"Oc1ccccc1C1=NNC(c2cn(-c3ccccc3)nc2-c2ccccc2)C1 (stereo not drawn) [Compound 29, 2-(1′,3′-diphenyl-3,4-dihydro-1′H,2H-[3,4′-bipyrazol]-5-yl)phenol]",,> 25,,11,46.5,Fold more active than parent compound 27 (IC50 H37Rv) ([1]; 29 versus 27): 10 fold
O=C(/C=C/c1cccnc1)c1c2ccccc2cc2ccccc12 [Compound 19],4.4,48,0.3,10,2.7,
COc1ccccc1C(=O)/C=C/c1ccc(Br)cc1 [Compound 22],,59,,44.5,13,
O=C(/C=C/c1cccnc1)c1ccc(O)cc1 [Compound 17],> 100,> 100,30,> 100,> 100,Anti-tubercular activity (in words) ([1]; M. tuberculosis H37Rv): abolished
"O=C(/C=C/c1cccnc1)c1ccc2ccc3cccc4ccc1c2c34 [Compound 20, (E)-1-(pyren-1-yl)-3-(pyridin-3-yl)prop-2-en-1-one]",2,22,4,8.8,1.8,
"CO[C@H]1/C=C/O[C@@]2(C)Oc3c(C)c(O)c4c(O)c(c(/C=N/N5CCN(C)CC5)c(O)c4c3C2=O)NC(=O)/C(C)=C\C=C\[C@H](C)[C@H](O)[C@@H](C)[C@@H](O)[C@@H](C)[C@H](OC(C)=O)[C@@H]1C [Rifampicin, reference compound]",,0.0087,,0.0044,,
"COc1cc(C(=O)/C=C/c2cccnc2)cc(OC)c1OC [Compound 16, (E)-3-(pyridin-3-yl)-1-(3,4,5-trimethoxyphenyl)prop-2-en-1-one]",1.5,59,0.7,19,2,
"O=C(/C=C/c1ccc(Cl)cc1)c1ccccc1O [Compound 23, (E)-3-(4-chlorophenyl)-1-(2-hydroxyphenyl)prop-2-en-1-one]",,97 to 100,,,25,"IC90 ([1]; 5-day incubation, […]): > 100 µM"
"O=C(/C=C/c1cccnc1)c1ccc(Cl)cc1 [Compound 15, (E)-1-(4-chlorophenyl)-3-(pyridin-3-yl)prop-2-en-1-one]",,77,,24,11,
